Reference: publication PMC13635228 (Nature Communications, 2026)

Experiments:
mouse C3aR = assay: Transducer-coupling assays taken together; assay type: cell-based
C3aR = conditions: cited from earlier work
human C3aR = assay: Transducer-coupling assays taken together; assay type: cell-based

## mC3a-d-Arg: mouse C3a with terminal arginine removed
Mouse C3aR; mouse C3aR
  activity: weak but measurable activity

## C3a^-d-Arg: C3a with terminal arginine removed by carboxypeptidases; species not stated
C3aR; ref [25],[30],[67]
  activity at human and mouse C3aR: very weak activity

## hC3a: full-length recombinant human complement anaphylatoxin C3a, natural agonist of C3aR, expressed in E. coli
Mouse C3aR; mouse C3aR
  potency and efficacy, human vs. mouse C3a: equally potent and efficacious
Human C3aR
  efficacy: full agonists
  potency, human vs. mouse C3a: more potent

## NC(N)=NCCC[C@H](NC(=O)COCC(c1ccccc1)c1ccccc1)C(=O)O [SB290157, reference compound]
C3aR; various cellular assays, ref [45]-[47]
  agonistic activity: agonistic activity
Mouse C3aR; G protein activation or β-arrestin recruitment
  activation of mouse C3aR: did not activate mouse C3aR
Human C3aR; compared to C3a
  agonist profile, G-protein activation: partial agonist profile
  βarr recruitment response: weak response in βarr recruitment

## mC3a: full-length recombinant mouse complement anaphylatoxin C3a (S1-R78), expressed in E. coli
Mouse C3aR; mouse C3aR
  potency and efficacy, human vs. mouse C3a: equally potent and efficacious
Human C3aR
  efficacy: full agonists
